According to PubChem BioAssay (NCI):
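96-well plates; 48 h exposure; 5 concentrations. Endpoints by linear interpolation between flanking doses. Not reached: highest tested concentration assigned. TGI denotes the concentration required for complete inhibition of growth.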

Key:
Test in all cases: NCI anticancer screen, dose series, 48 h
[1] = tested on: DU-145 prostate
[2] = tested on: K-562 leukemia
[3] = tested on: OVCAR-4 ovarian
[4] = tested on: HOP-92 NSCLC
[5] = tested on: SF-295 CNS
[6] = tested on: A549 NSCLC
[7] = tested on: LOX IMVI melanoma
[8] = tested on: CCRF-CEM leukemia
[9] = tested on: UACC-257 melanoma
[10] = tested on: HS 578T breast
[11] = tested on: SK-MEL-5 melanoma
[12] = tested on: ACHN renal
[13] = tested on: RXF 393 renal
[14] = tested on: MDA-MB-231 breast
[15] = tested on: TK-10 renal
[16] = tested on: NCI-H522 lung
[17] = tested on: U251 CNS
[18] = tested on: A498 renal
[19] = tested on: SNB-19 CNS
[20] = tested on: NCI/ADR-RES ovarian

O=C1C=CC(=O)c2c1ccc1c3ccccc3n(-c3ccccc3)c21
TGI [1]: 37.2 µM | TGI [2]: 5.08 µM | TGI [3]: 27.2 µM | TGI [4]: 7.78 µM | TGI [5]: 22.2 µM | TGI [6]: 44.2 µM | TGI [7]: 20.1 µM | TGI [8]: 1.94 µM | TGI [9]: 19.2 µM | TGI [10]: 60.5 µM | TGI [11]: 31.2 µM | TGI [12]: 11.1 µM | TGI [13]: 5.34 µM | TGI [14]: 15.9 µM | TGI [15]: 17.8 µM | TGI [16]: 3.15 µM | TGI [17]: 43.7 µM | TGI [18]: 35.2 µM | TGI [19]: 43.7 µM

Clc1ccc(C(Cc2cccc(Cl)c2)c2c(Cl)nc(N3CCNCC3)nc2Cl)cc1 (stereo not drawn)
TGI [1]: 33.9 µM | TGI [2]: 26.5 µM | TGI [3]: 31.3 µM | TGI [4]: 27.1 µM | TGI [5]: 31 µM | TGI [6]: 29.5 µM | TGI [7]: 25.5 µM | TGI [8]: 31.9 µM | TGI [9]: 37.6 µM | TGI [10]: 38.8 µM | TGI [20]: 36.2 µM | TGI [11]: 29.7 µM | TGI [12]: 28.8 µM | TGI [14]: 26.4 µM | TGI [15]: 30.4 µM | TGI [16]: 28 µM | TGI [17]: 30 µM | TGI [18]: 28.5 µM | TGI [19]: 30.5 µM

O=c1[nH]nc(Cc2ccccc2)n1CCCl
TGI [1]: > 100 µM | TGI [2]: > 100 µM | TGI [3]: > 100 µM | TGI [5]: > 100 µM | TGI [7]: > 100 µM | TGI [8]: > 100 µM | TGI [10]: > 100 µM | TGI [20]: > 100 µM | TGI [13]: > 100 µM | TGI [14]: > 100 µM | TGI [17]: > 100 µM | TGI [18]: > 100 µM | TGI [19]: > 100 µM

O=C(CCCN1CCC2(CC1)CC(=O)N(N1CCOCC1)C2=O)c1ccc(F)cc1
TGI [1]: > 100 µM | TGI [2]: > 100 µM | TGI [5]: > 100 µM | TGI [6]: > 100 µM | TGI [7]: > 100 µM | TGI [8]: > 100 µM | TGI [9]: > 100 µM | TGI [10]: > 100 µM | TGI [20]: > 100 µM | TGI [11]: > 100 µM | TGI [12]: > 100 µM | TGI [13]: > 100 µM | TGI [14]: > 100 µM | TGI [15]: > 100 µM | TGI [16]: > 100 µM | TGI [17]: > 100 µM | TGI [18]: > 100 µM | TGI [19]: > 100 µM

CNC(=O)NCCN1CC2CCC(CC2)C1
TGI [1]: > 10 µM | TGI [2]: > 10 µM | TGI [3]: > 10 µM | TGI [5]: > 10 µM | TGI [6]: > 10 µM | TGI [7]: > 10 µM | TGI [8]: > 10 µM | TGI [9]: > 10 µM | TGI [10]: > 10 µM | TGI [20]: > 10 µM | TGI [11]: > 10 µM | TGI [12]: > 10 µM | TGI [13]: > 10 µM | TGI [14]: > 10 µM | TGI [15]: > 10 µM | TGI [16]: > 10 µM | TGI [17]: > 10 µM | TGI [18]: > 10 µM | TGI [19]: > 10 µM

CCCN(CCC)C(=S)N/N=C/c1ccccn1
TGI [1]: > 43.8 µM | TGI [3]: 0.9 µM | TGI [4]: 26.7 µM | TGI [5]: 21.7 µM | TGI [6]: 11.9 µM | TGI [7]: 13.4 µM | TGI [8]: 0.255 µM | TGI [9]: 0.195 µM | TGI [10]: > 100 µM | TGI [20]: < 0.0354 µM | TGI [11]: 0.954 µM | TGI [12]: 0.384 µM | TGI [13]: 3.41 µM | TGI [15]: 15.1 µM | TGI [16]: 1.67 µM | TGI [17]: > 25.4 µM | TGI [18]: 4.03 µM | TGI [19]: 32.1 µM

CCN(CC)C1CCC(C2c3cc4c(cc3OC(N3CCOCC3)C2C)OCO4)CC1 (stereo not drawn)
TGI [1]: > 100 µM | TGI [2]: > 100 µM | TGI [3]: > 100 µM | TGI [4]: > 100 µM | TGI [5]: > 100 µM | TGI [6]: > 100 µM | TGI [7]: > 100 µM | TGI [8]: > 100 µM | TGI [9]: > 100 µM | TGI [10]: > 72.1 µM | TGI [20]: > 83.1 µM | TGI [11]: > 55.7 µM | TGI [12]: > 100 µM | TGI [13]: 52.7 µM | TGI [15]: > 100 µM | TGI [16]: 72.5 µM | TGI [17]: > 100 µM | TGI [18]: 60.7 µM | TGI [19]: > 100 µM

COC(=O)[C@H](Cc1c[nH]c2ccccc12)NP(=O)(O)OC[C@H]1O[C@@H](n2cc(C)c(=O)[nH]c2=O)C[C@@H]1N=[N+]=[N-]
TGI [1]: > 100 µM | TGI [2]: > 100 µM | TGI [3]: > 100 µM | TGI [4]: > 100 µM | TGI [5]: > 100 µM | TGI [6]: > 100 µM | TGI [7]: > 100 µM | TGI [8]: > 100 µM | TGI [9]: > 100 µM | TGI [10]: > 100 µM | TGI [20]: > 100 µM | TGI [11]: > 100 µM | TGI [13]: > 100 µM | TGI [14]: > 100 µM | TGI [15]: > 100 µM | TGI [16]: > 100 µM | TGI [17]: > 100 µM | TGI [19]: > 100 µM

CC1CC/C(=C\c2ccc(N(C)C)cc2)C2=C1C(c1ccc(N(C)C)cc1)NC(=S)N2 (stereo not drawn)
TGI [1]: > 100 µM | TGI [2]: > 100 µM | TGI [5]: > 100 µM | TGI [7]: > 100 µM | TGI [8]: > 100 µM | TGI [9]: > 100 µM | TGI [10]: > 100 µM | TGI [20]: > 100 µM | TGI [11]: > 100 µM | TGI [12]: > 100 µM | TGI [13]: > 100 µM | TGI [14]: > 100 µM | TGI [15]: > 100 µM | TGI [17]: > 100 µM | TGI [18]: > 100 µM | TGI [19]: > 100 µM

CC1(C)C2CC(O)C1CCC2=O (stereo not drawn)
TGI [1]: > 100 µM | TGI [2]: > 100 µM | TGI [3]: > 100 µM | TGI [5]: > 100 µM | TGI [6]: > 100 µM | TGI [7]: > 100 µM | TGI [8]: > 100 µM | TGI [9]: > 100 µM | TGI [10]: > 100 µM | TGI [20]: > 100 µM | TGI [11]: > 100 µM | TGI [12]: > 100 µM | TGI [13]: > 100 µM | TGI [14]: > 100 µM | TGI [15]: > 100 µM | TGI [16]: > 100 µM | TGI [17]: > 100 µM | TGI [18]: > 100 µM | TGI [19]: > 100 µM
